Inconclusive results and toxic doses are left out.
Test system: BDF1 mice, P388 leukemia ip, median survival T/C
Test: NCI In Vivo Anticancer Drug Screen. Data for tumor model P388 Leukemia (intraperitoneal) in B6D2F1 (BDF1) mice
Details: endpoint: median survival time, higher = longer survival
Method in brief: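 Antitumour effect was judged in vivo: survival in drug-treated mice, normalised to that of vehicle-dosed controls, gives the reported T/C.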

[1] = dose: 100.0 mg/kg/injection, schedule: Q01DX009 (ip), vehicle: saline with Tween-80
[2] = dose: 200.0 mg/kg/injection, schedule: Q01DX009 (ip), vehicle: saline with Tween-80
[3] = dose: 15.0 mg/kg/injection, schedule: Q01DX009 (ip), vehicle: saline with Tween-80
[4] = dose: 100.0 mg/kg/injection, schedule: Q04DX003 (ip), vehicle: saline with Tween-80
[5] = dose: 200.0 mg/kg/injection, schedule: Q04DX003 (ip), vehicle: saline with Tween-80
[6] = dose: 400.0 mg/kg/injection, schedule: Q04DX003 (ip), vehicle: saline with Tween-80
[7] = dose: 50.0 mg/kg/injection, schedule: Q01DX009 (ip), vehicle: saline with Tween-80
[8] = dose: 25.0 mg/kg/injection, schedule: Q01DX009 (ip), vehicle: saline
[9] = dose: 50.0 mg/kg/injection, schedule: Q01DX009 (ip), vehicle: saline
[10] = dose: 100.0 mg/kg/injection, schedule: Q01DX009 (ip), vehicle: saline
[11] = dose: 12.5 mg/kg/injection, schedule: Q01DX009 (ip), vehicle: saline with Tween-80
[12] = dose: 25.0 mg/kg/injection, schedule: Q01DX009 (ip), vehicle: saline with Tween-80

O=C(/C=C/c1ccc(Cl)cc1)c1ccc(Cl)cc1
T/C [1]: 100 % of control
T/C [2]: 90 % of control
T/C (dose: 400.0 mg/kg/injection, schedule: Q01DX009 (ip), vehicle: saline with Tween-80): 90 % of control

CCOC(=O)C(C1=NC(C)(C)CC(C)O1)C1CCCCC1 (configuration not stated)
T/C (dose: 50.0 mg/kg/injection, schedule: Q01DX001 (ip), vehicle: saline sonified): 120 % of control
T/C (dose: 100.0 mg/kg/injection, schedule: Q01DX001 (ip), vehicle: saline sonified): 110 % of control
T/C (dose: 200.0 mg/kg/injection, schedule: Q01DX001 (ip), vehicle: saline sonified): 105 % of control

Cc1ccc(NC2=CC(=O)C(=O)C=C2Nc2ccc(C)cc2)cc1
T/C [3]: 88 % of control
T/C (dose: 30.0 mg/kg/injection, schedule: Q01DX009 (ip), vehicle: saline with Tween-80): 88 % of control
T/C (dose: 60.0 mg/kg/injection, schedule: Q01DX009 (ip), vehicle: saline with Tween-80): 100 % of control

CCC[CH2][Sn]([CH2]CCC)[CH2]CCC.CCC[CH2][Sn]([CH2]CCC)[CH2]CCC
T/C (dose: 3.75 mg/kg/injection, schedule: Q01DX009 (ip), vehicle: saline with Tween-80): 110 % of control
T/C (dose: 7.5 mg/kg/injection, schedule: Q01DX009 (ip), vehicle: saline with Tween-80): 92 % of control
T/C (dose: 13.0 mg/kg/injection, schedule: Q04DX003 (ip), vehicle: saline with Tween-80): 112 % of control
T/C [3]: 114 % of control
T/C (dose: 20.0 mg/kg/injection, schedule: Q04DX003 (ip), vehicle: saline with Tween-80): 100 % of control
T/C (dose: 25.0 mg/kg/injection, schedule: Q01DX009 (ip), vehicle: Klucel (hydroxypropylcellulose) (HPC)): 95 % of control
T/C (dose: 30.0 mg/kg/injection, schedule: Q04DX003 (ip), vehicle: saline with Tween-80): 108 % of control

O=[N+]([O-])c1ccccc1CSc1ncnc2nc[nH]c12
T/C [4]: 100 % of control
T/C (dose: 132.0 mg/kg/injection, schedule: Q01DX009 (ip), vehicle: saline with Tween-80): 104 % of control
T/C [2]: 100 % of control
T/C [5]: 108 % of control
T/C (dose: 300.0 mg/kg/injection, schedule: Q01DX009 (ip), vehicle: saline with Tween-80): 86 % of control
T/C [6]: 116 % of control

COc1ccc(/C=C2\SC(=S)N(CCCN3CCOCC3)C2=O)c(OC)c1
T/C [7]: 97 % of control
T/C [1]: 92 % of control
T/C [2]: 95 % of control

C[N+]1(C)N=C([O-])N(c2ccccc2[N+](=O)[O-])C1=O
T/C [7]: 88 % of control

CC1(C)C2CCC1(C)C1OC(=O)NN=C21 (configuration not stated)
T/C (dose: 12.5 mg/kg/injection, schedule: Q01DX001 (ip), vehicle: saline with Tween-80): 100 % of control
T/C (dose: 25.0 mg/kg/injection, schedule: Q01DX001 (ip), vehicle: saline with Tween-80): 98 % of control
T/C (dose: 50.0 mg/kg/injection, schedule: Q01DX001 (ip), vehicle: saline with Tween-80): 103 % of control

COc1ccc(NC(=O)Nc2c(Oc3ccc(Cl)cc3)ccc(Cl)c2S(=O)(=O)O)cc1Cl
T/C [8]: 109 % of control
T/C [9]: 86 % of control
T/C [10]: 104 % of control

Clc1nc2ccccc2n2nnnc12
T/C (dose: 5.0 mg/kg/injection, schedule: Q01DX009 (ip), vehicle: saline with Tween-80): 105 % of control
T/C (dose: 10.0 mg/kg/injection, schedule: Q01DX009 (ip), vehicle: saline with Tween-80): 105 % of control
T/C (dose: 12.5 mg/kg/injection, schedule: Q01DX009 (ip), vehicle: saline): 94 % of control
T/C (dose: 20.0 mg/kg/injection, schedule: Q01DX009 (ip), vehicle: saline with Tween-80): 107 % of control
T/C [8]: 97 % of control

CSc1nc(=O)c(=O)nc(Nc2ccccc2)n1-c1ccccc1
T/C [11]: 88 % of control
T/C [12]: 95 % of control
T/C [7]: 88 % of control

CCOc1nsc(OCC)n1
T/C (dose: 100.0 mg/kg/injection, schedule: Q01DX001 (ip), vehicle: Klucel (hydroxypropylcellulose) (HPC)): 86 % of control
T/C (dose: 200.0 mg/kg/injection, schedule: Q01DX001 (ip), vehicle: Klucel (hydroxypropylcellulose) (HPC)): 104 % of control

C[N+]1(C)N=C([O-])N(c2ccc([N+](=O)[O-])cc2)C1=O
T/C [7]: 90 % of control
T/C [1]: 99 % of control

COC(OC)c1ccccc1
T/C [7]: 99 % of control
T/C [1]: 115 % of control
T/C [2]: 108 % of control

COC(=O)C1CC(O)CN1C(=O)c1c2nc3c(C(=O)N4CC(O)CC4C(=O)OC)ccc(C)c3oc-2c(C)c(=O)c1N (configuration not stated)
T/C [4]: 96 % of control
T/C [5]: 100 % of control
T/C [6]: 114 % of control

Cc1cc(C)c(NS(=O)(=O)c2ccc([N+](=O)[O-])cc2)c(C)c1
T/C (dose: 75.0 mg/kg/injection, schedule: Q01DX001 (ip), vehicle: saline with Tween-80): 100 % of control
T/C (dose: 150.0 mg/kg/injection, schedule: Q01DX001 (ip), vehicle: saline with Tween-80): 90 % of control
T/C (dose: 300.0 mg/kg/injection, schedule: Q01DX001 (ip), vehicle: saline with Tween-80): 100 % of control

O=c1c2ccccc2cc2ccccn12
T/C (dose: 100.0 mg/kg/injection, schedule: Q01DX009 (ip), vehicle: Klucel (hydroxypropylcellulose) (HPC)): 109 % of control
T/C (dose: 100.0 mg/kg/injection, schedule: Q04DX003 (ip), vehicle: Klucel (hydroxypropylcellulose) (HPC)): 91 % of control
T/C (dose: 200.0 mg/kg/injection, schedule: Q01DX009 (ip), vehicle: Klucel (hydroxypropylcellulose) (HPC)): 109 % of control
T/C (dose: 200.0 mg/kg/injection, schedule: Q04DX003 (ip), vehicle: Klucel (hydroxypropylcellulose) (HPC)): 95 % of control

CN(CCCOS(C)(=O)=O)CCCOS(C)(=O)=O
T/C (dose: 2.2 mg/kg/injection, schedule: Q04DX003 (ip), vehicle: saline): 104 % of control
T/C (dose: 3.4 mg/kg/injection, schedule: Q04DX003 (ip), vehicle: saline): 113 % of control
T/C (dose: 5.0 mg/kg/injection, schedule: Q01DX010 (ip), vehicle: saline): 150 % of control
T/C (dose: 10.0 mg/kg/injection, schedule: Q01DX010 (ip), vehicle: saline): 196 % of control
T/C (dose: 19.0 mg/kg/injection, schedule: Q04DX003 (ip), vehicle: saline): 172 % of control
T/C [12]: 263 % of control
T/C (dose: 29.0 mg/kg/injection, schedule: Q04DX003 (ip), vehicle: saline with Tween-80): 209 % of control
T/C (dose: 40.0 mg/kg/injection, schedule: Q01DX010 (ip), vehicle: saline): 230 % of control
T/C (dose: 66.0 mg/kg/injection, schedule: Q04DX003 (ip), vehicle: saline with Tween-80): 300 % of control
T/C (dose: 80.0 mg/kg/injection, schedule: Q01DX010 (ip), vehicle: saline): 107 % of control
T/C [4]: 300 % of control
T/C (dose: 100.0 mg/kg/injection, schedule: Q04DX003 (ip), vehicle: saline): 118 % of control
T/C (dose: 150.0 mg/kg/injection, schedule: Q04DX003 (ip), vehicle: saline with Tween-80): 100 % of control
T/C (dose: 150.0 mg/kg/injection, schedule: Q04DX003 (ip), vehicle: saline): 254 % of control

c1cc2c3c(c1)ncn3CCC2
T/C (dose: 25.0 mg/kg/injection, schedule: Q04DX003 (ip), vehicle: other): 100 % of control
T/C (dose: 50.0 mg/kg/injection, schedule: Q04DX003 (ip), vehicle: other): 100 % of control
T/C (dose: 100.0 mg/kg/injection, schedule: Q04DX003 (ip), vehicle: other): 95 % of control

O=[N+]([O-])c1cc[n+]([O-])c(Br)c1
T/C [7]: 90 % of control
T/C [4]: 100 % of control
T/C [2]: 87 % of control
T/C [5]: 90 % of control

COc1cc(Br)cc(/C=C/[N+](=O)[O-])c1OC
T/C (dose: 6.25 mg/kg/injection, schedule: Q01DX009 (ip), vehicle: saline with Tween-80): 113 % of control
T/C [11]: 118 % of control
T/C [12]: 109 % of control

NC(=O)c1csc(C2OC(CO)C(O)C2O)n1 (configuration not stated)
T/C (dose: 330.0 mg/kg/injection, schedule: Q01DX009 (ip), vehicle: water): 213 % of control
T/C (dose: 500.0 mg/kg/injection, schedule: Q01DX009 (ip), vehicle: water): 243 % of control
T/C (dose: 750.0 mg/kg/injection, schedule: Q01DX009 (ip), vehicle: water): 277 % of control

Cc1ccc(CO)cc1C
T/C (dose: 50.0 mg/kg/injection, schedule: Q04DX003 (ip), vehicle: saline with Tween-80): 100 % of control
T/C [4]: 100 % of control
T/C [5]: 104 % of control

NC(Cc1cc(Cl)c(O)c(Cl)c1)C(=O)O (configuration not stated)
T/C [10]: 94 % of control
T/C (dose: 150.0 mg/kg/injection, schedule: Q01DX009 (ip), vehicle: saline): 97 % of control
T/C (dose: 200.0 mg/kg/injection, schedule: Q01DX009 (ip), vehicle: saline): 105 % of control

CC(=O)Nc1ccc(N=Nc2c(C)nn(C(=N)N)c2C)cc1
T/C [8]: 97 % of control
T/C [9]: 97 % of control

Reference: PubChem BioAssay AID328 (DTP/NCI, 2004)
